Data on 10 compounds can be found in patent publication US8471005B2 (Cephalon, Inc., priority 2008, dated 2013).

One assay has as its target T1, JAK2 (Homo sapiens, UniProt O60674).
T1 construct: host or cells: baculovirus expression system
The assay can be described thus: Recombinant Human JAK2 Kinase Assay (TRF). In kind it is biochemical. The settings on record: JAK2 kinase inhibition, 0.2 μM ATP; read-out: JAK2 Potency. The method in brief: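 Baculovirus-expressed JAK2 (15 ng/ml) phosphorylated a biotinylated 15-mer peptide captured on Neutravidin-coated plates, in 20 mM HEPES pH 7.2 with 0.2 μM ATP, 1 mM MnCl2, 0.1% BSA and 2.5% DMSO. Reaction ran 20 min at room temperature; phosphopeptide was detected by time-resolved fluorescence with Eu-N1-labelled PY100 antibody.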

A further assay deals with T2, ALK (Homo sapiens, UniProt Q9UM73).
T2 construct: host or cells: baculovirus expression system
T2 sequence (Q9UM73 19-1620): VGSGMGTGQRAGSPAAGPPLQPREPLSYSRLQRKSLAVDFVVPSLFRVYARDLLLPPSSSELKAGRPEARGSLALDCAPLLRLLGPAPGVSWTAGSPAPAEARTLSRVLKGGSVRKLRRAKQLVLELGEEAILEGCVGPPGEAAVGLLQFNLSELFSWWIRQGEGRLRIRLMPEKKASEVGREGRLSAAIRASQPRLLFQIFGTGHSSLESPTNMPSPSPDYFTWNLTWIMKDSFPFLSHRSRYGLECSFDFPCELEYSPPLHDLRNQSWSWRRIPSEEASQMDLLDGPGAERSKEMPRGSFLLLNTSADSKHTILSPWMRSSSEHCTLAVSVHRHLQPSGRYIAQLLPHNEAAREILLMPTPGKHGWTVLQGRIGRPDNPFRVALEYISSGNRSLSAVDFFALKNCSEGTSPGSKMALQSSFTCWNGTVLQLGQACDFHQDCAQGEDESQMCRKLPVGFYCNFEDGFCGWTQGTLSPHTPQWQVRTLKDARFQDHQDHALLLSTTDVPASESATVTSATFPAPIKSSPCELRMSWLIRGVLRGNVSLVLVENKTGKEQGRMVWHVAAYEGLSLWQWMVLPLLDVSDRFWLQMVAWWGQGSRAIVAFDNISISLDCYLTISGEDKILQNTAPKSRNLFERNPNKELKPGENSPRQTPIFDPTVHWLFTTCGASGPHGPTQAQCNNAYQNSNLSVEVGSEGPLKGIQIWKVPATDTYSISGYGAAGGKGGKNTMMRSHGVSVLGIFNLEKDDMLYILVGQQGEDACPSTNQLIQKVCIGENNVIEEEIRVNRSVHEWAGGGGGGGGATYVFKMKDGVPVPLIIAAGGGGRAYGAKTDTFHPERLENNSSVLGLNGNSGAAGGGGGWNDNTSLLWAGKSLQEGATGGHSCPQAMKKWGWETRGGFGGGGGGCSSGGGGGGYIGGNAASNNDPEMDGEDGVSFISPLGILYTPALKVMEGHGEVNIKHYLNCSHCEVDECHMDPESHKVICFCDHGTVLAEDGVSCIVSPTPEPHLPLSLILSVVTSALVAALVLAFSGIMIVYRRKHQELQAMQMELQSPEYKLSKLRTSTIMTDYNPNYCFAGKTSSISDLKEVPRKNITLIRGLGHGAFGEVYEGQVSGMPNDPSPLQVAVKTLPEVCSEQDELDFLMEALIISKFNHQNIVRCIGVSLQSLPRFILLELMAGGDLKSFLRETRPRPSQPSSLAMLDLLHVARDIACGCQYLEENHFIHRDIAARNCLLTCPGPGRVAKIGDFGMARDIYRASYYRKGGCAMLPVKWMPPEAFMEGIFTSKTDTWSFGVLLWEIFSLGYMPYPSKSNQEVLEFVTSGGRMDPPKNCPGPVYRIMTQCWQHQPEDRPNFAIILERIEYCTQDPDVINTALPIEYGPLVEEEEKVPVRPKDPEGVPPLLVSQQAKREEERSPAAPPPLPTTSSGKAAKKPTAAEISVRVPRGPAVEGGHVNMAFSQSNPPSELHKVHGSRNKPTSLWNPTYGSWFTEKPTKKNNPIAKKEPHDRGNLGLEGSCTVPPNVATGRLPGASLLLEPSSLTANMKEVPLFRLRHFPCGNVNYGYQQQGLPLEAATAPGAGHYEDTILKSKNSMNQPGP
Put plainly: ALK Kinase Assay (ELISA/TRF, PLC-γ substrate). In kind it is biochemical. The note with it: ALK kinase inhibition, 1 μM ATP; read-out: ALK Potency. The method in brief: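 Wells were coated with 10 μg/mL phospholipase C-γ substrate in TBS, and the reaction was started by adding 30 ng/ml ALK enzyme and run at 37° C for 15 minutes. Phosphorylated product was detected with Eu-N1-labeled PT66 antibody, and IC50 values came from sigmoidal variable-slope fits of percent inhibition against log concentration.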

T1 sequence (O60674 whole entry): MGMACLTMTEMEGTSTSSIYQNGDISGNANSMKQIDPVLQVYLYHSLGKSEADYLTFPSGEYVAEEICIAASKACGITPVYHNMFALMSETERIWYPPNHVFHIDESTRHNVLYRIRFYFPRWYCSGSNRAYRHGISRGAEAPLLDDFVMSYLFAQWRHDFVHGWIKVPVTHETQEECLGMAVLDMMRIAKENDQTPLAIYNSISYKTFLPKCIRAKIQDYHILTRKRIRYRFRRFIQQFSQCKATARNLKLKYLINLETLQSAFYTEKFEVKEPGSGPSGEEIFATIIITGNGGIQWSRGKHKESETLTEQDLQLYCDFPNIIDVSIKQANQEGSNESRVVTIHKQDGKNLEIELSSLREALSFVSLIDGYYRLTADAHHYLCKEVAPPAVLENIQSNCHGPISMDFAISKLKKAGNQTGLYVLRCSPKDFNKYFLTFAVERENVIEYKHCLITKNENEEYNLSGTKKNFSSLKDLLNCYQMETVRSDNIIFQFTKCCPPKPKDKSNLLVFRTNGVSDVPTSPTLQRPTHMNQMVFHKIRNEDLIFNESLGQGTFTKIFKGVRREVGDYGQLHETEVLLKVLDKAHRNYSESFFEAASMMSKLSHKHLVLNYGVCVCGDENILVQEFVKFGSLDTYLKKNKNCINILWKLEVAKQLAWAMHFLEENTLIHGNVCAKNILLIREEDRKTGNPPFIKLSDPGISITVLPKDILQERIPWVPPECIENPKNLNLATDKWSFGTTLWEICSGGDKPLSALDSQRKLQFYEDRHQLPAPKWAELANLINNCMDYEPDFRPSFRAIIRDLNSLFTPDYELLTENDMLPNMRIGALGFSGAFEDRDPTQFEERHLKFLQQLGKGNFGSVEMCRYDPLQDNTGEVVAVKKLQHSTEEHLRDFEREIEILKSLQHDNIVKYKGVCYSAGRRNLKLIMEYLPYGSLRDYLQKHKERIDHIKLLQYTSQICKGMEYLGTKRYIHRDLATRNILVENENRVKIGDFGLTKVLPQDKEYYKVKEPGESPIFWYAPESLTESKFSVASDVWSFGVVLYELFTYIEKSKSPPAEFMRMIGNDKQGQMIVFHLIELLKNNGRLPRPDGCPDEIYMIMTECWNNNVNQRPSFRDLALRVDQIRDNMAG

With `COc1cc(C2CCN(CC(N)=O)CC2)ccc1Nc1ncc2cc(C)c(-c3ccccc3N(C)S(C)(=O)=O)n2n1` [Example 515, 2-[4-(4-{7-[2-(Methanesulfonyl-methyl-amino)-phenyl]-6-methyl-pyrrolo[2,1-f][1,2,4]triazin-2-ylamino}-3-methoxy-phenyl)-piperidin-1-yl]-acetamide], the IC50 on JAK2 and at ALK was 1000 to 10000 nM throughout.
In the case of `Cc1cc2cnc(Nc3ccc(C4CCN(CC(N)=O)CC4)cc3)nn2c1-c1ccccc1N(C)S(C)(=O)=O` [Example 516, 2-[4-(4-{7-[2-(Methanesulfonyl-methyl-amino)-phenyl]-6-methyl-pyrrolo[2,1-f][1,2,4]triazin-2-ylamino}-phenyl)-piperidin-1-yl]-acetamide], the IC50 at JAK2 was < 100 nM; at ALK, 1000 to 10000 nM.
Regarding `COc1cc(C2CCN(CC(N)=O)CC2)ccc1Nc1ncc2ccc(-c3ccccc3C#N)n2n1` [Example 517, 2-(4-{4-[7-(2-Cyano-phenyl)-pyrrolo[2,1-f][1,2,4]triazin-2-ylamino]-3-methoxy-phenyl}-piperidin-1-yl)-acetamide], the IC50 on JAK2 is 100 to 1000 nM; on ALK, < 100 nM.
Consider `COc1cc2c(cc1Nc1ncc3ccc(-c4cccc5c4OCC5)n3n1)CCN(C[C@@H](C)O)CC2` [Example 522, (R)-1-{7-[7-(2,3-Dihydro-benzofuran-7-yl)-pyrrolo[2,1-f]triazin-2-ylamino]-8-methoxy-1,2,4,5-tetrahydro-benzo[d]azepin-3-yl}-propan-2-ol], for which the IC50 at JAK2 was 100 to 1000 nM; at ALK, < 100 nM.
On to `COc1cc2c(cc1Nc1ncc3ccc(-c4cccc(S(=O)(=O)NC5CC5)c4)n3n1)CCN(C[C@@H](C)O)CC2` [Example 523, N-Cyclopropyl-3-{2-[3-((R)-2-hydroxy-propyl)-8-methoxy-2,3,4,5-tetrahydro-1H-benzo[d]azepin-7-ylamino]-pyrrolo[2,1-f][1,2,4]triazin-7-yl}benzenesulfonamide], for which the IC50 at JAK2 is 100 to 1000 nM; at ALK, < 100 nM.
For `COc1cc2c(cc1Nc1ncc3ccc(-c4cccc(S(=O)(=O)NC5CC5)c4)n3n1)CCN(CC(N)=O)CC2` [Example 524, 2-{7-[7-(3-Cyclopropylsulfamoyl-phenyl)-pyrrolo[2,1-f][1,2,4]triazin-2-ylamino]-8-methoxy-1,2,4,5-tetrahydro-benzo[d]azepin-3-yl}-acetamide] the same measures were 100 to 1000 nM and < 100 nM.
`COc1cc(N2CCC(N3CCN(C(=O)OCc4ccccc4)CC3)CC2)ccc1Nc1ncc2ccc(-c3ccccc3OC)n2n1` [Example 531, 4-(1-{3-Methoxy-4-[7-(2-methoxy-phenyl)-pyrrolo[2,1-f][1,2,4]triazin-2-ylamino]-phenyl}-piperidin-4-yl)-piperazine-1-carboxylic acid benzyl ester]: the IC50 on JAK2 is 100 to 1000 nM; at ALK, < 100 nM.
Consider `COc1cc(N2CCC(N3CCN(C)CC3)CC2)ccc1Nc1ncc2ccc(-c3ccccc3S(=O)(=O)N(C)C)n2n1` [Example 532, 2-(2-{2-Methoxy-4-[4-(4-methyl-piperazin-1-yl)-piperidin-1-yl]-phenylamino}-pyrrolo[2,1-f][1,2,4]triazin-7-yl)-N,N-dimethyl-benzenesulfonamide], for which the IC50 at JAK2 was 1000 to 10000 nM; at ALK, < 100 nM.
In the case of `COc1cc(N2CCC(N3CCN(C)CC3)CC2)ccc1Nc1ncc2ccc(-c3ccc(Cl)nc3)n2n1` [Example 533, [7-(6-Chloro-pyridin-3-yl)-pyrrolo[2,1-f][1,2,4]triazin-2-yl]-{2-methoxy-4-[4-(4-methyl-piperazin-1-yl)-piperidin-1-yl]-phenyl}-amine], the IC50 on JAK2 and at ALK was < 100 nM throughout.
As for `COc1cc(N2CCC(N3CCN(C)CC3)CC2)ccc1Nc1ncc2ccc(-c3cccc(S(=O)(=O)NC(C)(C)C)c3)n2n1` [Example 534, N-tert-Butyl-3-(2-{2-methoxy-4-[4-(4-methyl-piperazin-1-yl)-piperidin-1-yl]-phenylamino}-pyrrolo[2,1-f][1,2,4]triazin-7-yl)-benzene sulfonamide], the IC50 on JAK2 and on ALK was < 100 nM each time.
